The record followed here is patent publication US20070128303A1, “Anti-inflammatory, cytoprotective factor derivable from a probiotic organism” (THE UNIVERSITY OF CHICAGO, priority 2004, published 2007).

Series [1] addresses T1, trypsin-like activity of the proteasome (Mus musculus, UniProt P70195).
T1 construct: endogenous in cells; host or cells: YAMC cell lysates
T1 sequence (P70195 44-277): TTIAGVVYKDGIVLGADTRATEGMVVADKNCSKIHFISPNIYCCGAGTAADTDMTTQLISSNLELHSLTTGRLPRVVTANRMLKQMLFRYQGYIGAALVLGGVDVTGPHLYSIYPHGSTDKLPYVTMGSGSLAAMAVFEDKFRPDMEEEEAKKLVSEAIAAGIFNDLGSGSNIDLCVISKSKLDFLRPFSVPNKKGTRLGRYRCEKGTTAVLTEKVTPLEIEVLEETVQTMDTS
Nature of the series: Proteasome assay on YAMC cell lysates, substrate Bz-val-gly-arg-AMC. The series is classed as cell-based. To be noted: VSL#3-CM 16 hours; lactacystin 10 μM.

The target in series [2] is T2, PGPH, or caspase-like, activity of the proteasome (Mus musculus, UniProt Q60692).
T2 construct: endogenous in cells; host or cells: YAMC cell lysates
T2 sequence (Q60692 1-238): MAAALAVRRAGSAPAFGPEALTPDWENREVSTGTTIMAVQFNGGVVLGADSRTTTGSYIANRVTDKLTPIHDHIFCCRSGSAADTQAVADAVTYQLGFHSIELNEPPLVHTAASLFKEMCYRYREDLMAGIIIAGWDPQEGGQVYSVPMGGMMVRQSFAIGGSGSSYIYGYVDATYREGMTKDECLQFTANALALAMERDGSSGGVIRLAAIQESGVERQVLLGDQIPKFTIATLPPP
Kind of series: Proteasome assay on YAMC cell lysates, substrate Z-leu-leu-glu-AMC. The series is classed as cell-based. To be noted: VSL#3-CM 16 hours, about equivalent to 10 μM lactacystin; lactacystin 10 μM.

A further series concerns Hsp25 and Hsp72. Nature of the series: Immunoblot of Hsp25 and Hsp72 expression in YAMC cells. The class given is cell-based, mouse. The protocol:
Twenty micrograms of protein per lane were resolved on 12.5% SDS-PAGE and transferred in 1× Towbin buffer (composition 25 mM Tris, 192 mM glycine, pH 8.8, 15% vol/vol methanol) onto PVDF membranes (Polyscreen, Perkin-Elmer NEN, Boston, Mass.) as previously described (Kojima, 2003), incorporated herein by reference. Membranes were blocked in 5% (wt/vol) non-fat milk in TBS-Tween (Tris-buffered saline (150 mM NaCl, 5 mM KCl, 10 mM Tris, pH 7.4) with 0.05% (vol/vol) Tween 20) for one hour at room temperature. For anti-ubiquitin blots, membranes were blocked in 3% bovine serum albumin (Fisher, Pittsburgh, Pa.). Primary antibody was added to TBS-Tween and incubated overnight at 4° C. with a specific anti-Hsp 25 antibody (SPA 801, Stressgen, Victoria, BC, Canada), anti-Hsp 72 antibody (SPA 810, Stressgen), anti-Hsc 73 antibody (SPA 815, Stressgen), anti-IκB-α antibody (sc-1643, Santa Cruz Biotechnology, Santa Cruz, Calif.), anti-phospho IκB-α antibody (sc-8404, Santa Cruz), or anti-ubiquitin antibody (PW 8810, Affiniti Research Products Ltd, Exeter, U.K.). Blots were then washed in TBS-Tween five times for 10 minutes each at room temperature before incubation with peroxidase-conjugated secondary antibodies (Jackson Immunoresearch Labs, Inc. Fort Washington, Pa.) for 1 hour at room temperature. […]
On the technique in general: Immunoblotting shows a protein as a band on a membrane.

The subject of another series is NF-κB. Kind of series: NF-κB ELISA assay (Active Motif), TNF-α stimulation. The class given is cell-based. The following applies: TNF-α 30 ng/ml. The protocol: The proteasome inhibitors in VSL#3 may be small organic molecules. Some proteasome inhibitors found in nature are small molecular weight organic esters or organic acid derivatives, such as those in green tea. An ether extraction of the VSL#3-CM was undertaken to determine if bioactive factors could be concentrated to produce a more consistent and robust response. […] TNF-α stimulation (30 ng/ml) alone caused a significant increase in NF-κB activation (second bar from left).
Background: ELISA stands for enzyme-linked immunosorbent assay.

Series [3] deals with T3, 20S proteasomal component (barrel) (Homo sapiens, UniProt P28074).
T3 construct: purchased Calbiochem
Kind of series: In vitro 20S proteasome assay (Calbiochem). The class given is biochemical. The following applies: 20S component, slopes compared. The procedure: Proteasome activity from cell lysates was determined using a 20S Proteasome assay kit (Calbiochem, San Diego, Calif.). Briefly, ice-cold cell lysate containing 20 μg protein was added to proteasome assay reaction buffer (25 mm HEPES, 0.5 mM EDTA, pH 7.6) activated with 0.03% (wt/vol) SDS. The sample was allowed to come to room temperature, then placed in a quartz cuvette and 10 μM of the substrate suc-leu-leu-val-tyr-AMC (SLLVY-AMC), Bz-val-gly-arg-AMC, or Z-leu-leu-glu-AMC was added. The SLLVY-AMC substrate is cleaved by the chymotrypsin-like activity of the proteasome, the Bz-val-gly-arg-AMC substrate is cleaved by the trypsin-like activity of the proteasome, and the Z-leu-leu-glu-AMC substrate is cleaved by the PGPH, or caspase-like, activity of the proteasome. Proteasome activity was determined by measuring the fluorogenic signal generated by cleavage of AMC (7-amino-4-methylcoumarin) from the peptide moiety of the proteasome substrate. Fluorescence (excitation at 380 nm, emission at 460 nm) was measured every minute for the first 10 minutes, then every 15 minutes thereafter in a Hitachi F-2000 fluorometer (Hitachi, Japan). Cells were treated with either MG132 (25 μM) or lactacystin (10 μM) as a positive inhibitor control. Untreated cells were treated with DMSO as a vehicle control for MG132 and lactacystin. Experiments were performed in triplicate. […]

The subject of a further series is F/G actin. Kind of series: F/G actin assay, YAMC cells under oxidant stress. The series is classed as cell-based, mouse. To be noted: phalloidin 30 μg/ml 2 hours; cytochalasin D 10 μg/ml 15 min. The procedure:
F/G actin assays were conducted by initially shifting confluent YAMC cell monolayers to 37° C. in IFN-γ-free medium and treating with VSL#3-CM overnight. Prior to assessment, cells were treated with phalloidin (30 μg/ml for 2 hours; Molecular probes, Eugene, Oreg.), cytochalasin D (10 μg/ml for 15 min), or the oxidant monochloramine (0.6 mM for 30 minutes). Cells were rinsed in PBS, harvested, centrifuged (14,000×g for 20 seconds at room temperature) and the pellets resuspended in 200 μl of 30° C. lysis buffer (1 mM ATP, 50 mM PIPES, pH 6.9, 50 mM NaCl, 5 mM MgCl2, 5 mM EGTA, 5% (vol/vol) glycerol, 0.1% (vol/vol) Nonidet P-40, Tween 20, and Triton X-100, containing complete protease inhibitor cocktail). Cells were homogenized by gently pipetting up and down ten times and incubated at 30° C. for 10 minutes. Samples were centrifuged at 100,000×g for 60 minutes at 30° C. and the supernatants were removed for determination of G actin content. Pellets containing F-actin were resuspended in 200 μl of 4° C. distilled water with 1 μM cytochalasin D and left on ice for 60 minutes. Then, 20 μl of each extraction was removed, 6 μl 3× Laemmli stop solution was added and the samples were heated to 65° C. for 10 minutes. Samples were resolved by 12.5% SDS-PAGE and immediately transferred to PVDF membranes. […]

Molecules are shown by their SMILES. Starred links: 1 amine or outer side, 2 acyl side, 3 side chain; linkers in the order of their positions; H or OH if unused. Positions of bridges follow the written chain, without caps; N, C: chain ends. Non-standard residues stand in square brackets, D forms with d. Residues, ends and D or L forms follow the SMILES beside them. *: point of attachment. Trp(2-yl) = O=C([C@H](Cc1c([*:3])[nH]c2ccccc12)N[*:1])[*:2]; Leu(4R-OH,5-OH) = C[C@](O)(CO)C[C@H](N)C(=O)O; cisHyp = O=C(O)[C@@H]1C[C@H](O)CN1; Cbz = O=C(OCc1ccccc1)*

For `CC(=O)N[C@@H](CSC(=O)[C@]1([C@@H](O)C(C)C)NC(=O)[C@H](C)[C@@H]1O)C(=O)O` [Lactacystin], the “effect on trypsin-like activity of the proteasome” value in series [1] is “inhibits”. In addition, the “effect on caspase-like activity of the proteasome” value in series [2] is “only a weak inhibitor”. Also, the “cell toxicity limiting usable concentration” value in the series on YAMC cells (concentrations higher than 10 μM) is recorded as “limited due to cell toxicity”.

Regarding `CC(C)C[C@@H](C=O)NC(=O)[C@H](CC(C)C)NC(=O)[C@H](CC(C)C)NC(=O)OCc1ccccc1` [MG132] (Cbz-Leu-Leu-Leu-aldehyde), the “appearance of Hsp signal” value in the series on Hsp25 and Hsp72 (MG132 25 μM time course) was in the range of 7 to 14 h. The “induction of Hsp25 and Hsp72” value with Hsp25 and Hsp72 (MG132 25 μM, more robust than thermal stress) is “very strong induction”. The “effect on TNF-α-stimulated NF-κB activity” value in the series with NF-κB is “significantly inhibited”. For the same molecule, in series [3], the “effect on in vitro proteasomal activity” value is recorded as “significant inhibition”. Further, the “change in morphology and loss of cell viability” value with YAMC cells (16 hours, MG132 at 25 μM, phase-contrast photographs) is “dramatic change in morphology and loss of cell viability”. Besides, in the series with YAMC cells (VSL#3-CM 24 hours of treatment, MG132 prolonged exposure), the “cell viability compared to untreated control cells” value is given as “markedly increased cell death”.

With `C=C1[C@@H](C)[C@H]2[C@H](Cc3ccccc3)NC(=O)[C@]23[C@H](OC(C)=O)/C=C/[C@@](C)(O)C(=O)[C@@H](C)C/C=C/[C@H]3[C@@H]1O` [cytochalasin D], in the series with F/G actin, the “effect on F- and G-actin, control agents” value is “greatly increases the amount of globular (G) actin”.

In the case of `C[C@@H]1NC(=O)[C@H](C[C@@](C)(O)CO)NC(=O)[C@@H]2Cc3c([nH]c4ccccc34)SC[C@H](NC(=O)[C@@H]([C@H](C)O)NC1=O)C(=O)N1C[C@@H](O)C[C@H]1C(=O)N[C@@H](C)C(=O)N2` [phalloidin] (cyclo(A[dT]C[cisHyp]A[Trp(2-yl)][Leu(4R-OH,5-OH)]); thioether 3-6), the “effect on F- and G-actin, control agents” value with F/G actin was “increasing the amount of F-actin”.
